Like-named read-outs stand apart in the source and are kept apart here. Some results are limits rather than exact numbers.

Common to all, as to format: biochemical
For assay [1], the target named is wild-type un-phosphorylated FGFR3 protein (Homo sapiens (Human), UniProt P22607). In words: FGFR Enzymatic Assay (FRET peptide phosphorylation), FGFR3. The following applies: pre-incubated for 4 hours.
Another assay has as its target FGFR1 (Homo sapiens (Human), UniProt P11362). In words: FGFR Enzymatic Assay (FRET peptide phosphorylation), FGFR1. The following applies: pre-incubated for 4 hours.
The target of another assay is FGFR2 (Homo sapiens (Human), UniProt P21802). In words: FGFR Enzymatic Assay (FRET peptide phosphorylation), FGFR2.
FGFR2, sequence (P21802 22-821): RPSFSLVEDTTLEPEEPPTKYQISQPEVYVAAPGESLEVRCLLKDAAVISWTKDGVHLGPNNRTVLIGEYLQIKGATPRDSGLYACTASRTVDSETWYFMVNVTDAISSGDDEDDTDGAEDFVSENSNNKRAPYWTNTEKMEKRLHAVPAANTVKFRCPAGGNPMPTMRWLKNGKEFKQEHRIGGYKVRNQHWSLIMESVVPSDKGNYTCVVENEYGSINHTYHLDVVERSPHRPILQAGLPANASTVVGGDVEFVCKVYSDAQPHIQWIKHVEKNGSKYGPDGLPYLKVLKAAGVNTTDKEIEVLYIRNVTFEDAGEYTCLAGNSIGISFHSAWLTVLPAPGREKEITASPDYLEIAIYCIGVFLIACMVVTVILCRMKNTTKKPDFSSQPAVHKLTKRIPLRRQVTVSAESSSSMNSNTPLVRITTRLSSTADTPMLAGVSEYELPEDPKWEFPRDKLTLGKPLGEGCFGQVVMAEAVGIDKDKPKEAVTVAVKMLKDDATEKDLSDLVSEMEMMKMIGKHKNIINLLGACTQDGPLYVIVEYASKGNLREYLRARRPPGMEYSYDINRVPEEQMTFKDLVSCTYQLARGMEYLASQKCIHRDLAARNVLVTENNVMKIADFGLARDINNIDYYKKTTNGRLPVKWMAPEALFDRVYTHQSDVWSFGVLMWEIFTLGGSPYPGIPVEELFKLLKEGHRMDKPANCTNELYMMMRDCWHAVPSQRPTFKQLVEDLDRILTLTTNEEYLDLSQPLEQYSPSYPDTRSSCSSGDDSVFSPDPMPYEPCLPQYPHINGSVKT

wild-type un-phosphorylated FGFR3 protein, sequence (P22607 23-806): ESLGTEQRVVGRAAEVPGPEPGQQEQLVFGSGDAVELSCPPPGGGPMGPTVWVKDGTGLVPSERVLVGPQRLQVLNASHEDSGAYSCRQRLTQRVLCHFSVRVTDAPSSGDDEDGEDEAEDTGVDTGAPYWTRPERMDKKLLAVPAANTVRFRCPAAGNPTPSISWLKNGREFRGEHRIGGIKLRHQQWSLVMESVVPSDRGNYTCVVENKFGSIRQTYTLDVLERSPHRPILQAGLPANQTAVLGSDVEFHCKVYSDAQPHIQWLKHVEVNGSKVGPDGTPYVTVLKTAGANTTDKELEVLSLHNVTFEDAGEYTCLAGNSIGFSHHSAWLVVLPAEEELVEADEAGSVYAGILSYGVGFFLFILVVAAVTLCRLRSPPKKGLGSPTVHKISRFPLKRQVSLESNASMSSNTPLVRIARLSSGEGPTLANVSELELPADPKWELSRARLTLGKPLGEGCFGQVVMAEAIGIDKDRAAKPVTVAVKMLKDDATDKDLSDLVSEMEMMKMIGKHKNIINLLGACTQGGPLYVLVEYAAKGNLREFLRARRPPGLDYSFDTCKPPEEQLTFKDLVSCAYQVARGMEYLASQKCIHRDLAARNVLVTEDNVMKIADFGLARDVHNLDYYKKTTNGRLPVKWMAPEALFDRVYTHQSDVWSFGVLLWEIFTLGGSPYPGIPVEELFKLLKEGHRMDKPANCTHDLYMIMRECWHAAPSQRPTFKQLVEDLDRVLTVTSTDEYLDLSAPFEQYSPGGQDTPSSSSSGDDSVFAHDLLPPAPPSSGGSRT
FGFR1, sequence (P11362 22-822): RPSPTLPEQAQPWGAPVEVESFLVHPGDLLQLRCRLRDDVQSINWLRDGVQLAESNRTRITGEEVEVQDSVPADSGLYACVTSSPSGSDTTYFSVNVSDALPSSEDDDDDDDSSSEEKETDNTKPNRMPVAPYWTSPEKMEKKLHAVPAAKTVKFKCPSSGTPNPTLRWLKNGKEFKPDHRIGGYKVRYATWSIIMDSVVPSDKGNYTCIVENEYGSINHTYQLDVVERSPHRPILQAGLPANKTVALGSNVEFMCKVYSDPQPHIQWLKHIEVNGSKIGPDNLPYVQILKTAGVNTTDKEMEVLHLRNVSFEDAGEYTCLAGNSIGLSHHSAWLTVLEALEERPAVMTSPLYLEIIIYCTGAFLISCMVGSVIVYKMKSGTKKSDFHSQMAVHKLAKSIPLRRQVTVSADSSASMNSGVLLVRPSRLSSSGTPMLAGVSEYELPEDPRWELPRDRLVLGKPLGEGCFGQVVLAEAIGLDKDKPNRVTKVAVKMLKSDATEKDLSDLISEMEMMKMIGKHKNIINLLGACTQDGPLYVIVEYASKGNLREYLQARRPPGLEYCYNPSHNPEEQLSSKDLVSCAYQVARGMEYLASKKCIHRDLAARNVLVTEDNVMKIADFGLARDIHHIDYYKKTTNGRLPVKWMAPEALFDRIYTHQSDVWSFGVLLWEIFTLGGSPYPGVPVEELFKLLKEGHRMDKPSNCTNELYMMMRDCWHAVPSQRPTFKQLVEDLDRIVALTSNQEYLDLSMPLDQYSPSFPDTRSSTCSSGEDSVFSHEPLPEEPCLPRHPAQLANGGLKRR

In general, IC50 refers to the point on the concentration scale where inhibition reaches its midpoint. The low end stands for greater potency, the high end for weaker potency. Turning to `CNC(=O)c1cc(F)c(F)c(-c2cnn3cc(-c4ccc(N5CCN(C)CC5)nc4)c(O[C@H]4CCOC4)nc23)c1` [Example 13, (S)-3,4-Difluoro-N-methy1-5-(6-(6-(4-methylpiperazin-1-yl)pyridin-3-y1)-5-((tetrahydrofuran-3-yl)oxy)pyrazolo[1,5-a]pyrimidin-3-yl)benzamide], the concentration for half-maximal inhibition (IC50) was below 10 nM in assay [1], 10 to 30 nM against FGFR1 and below 10 nM against FGFR2 (pre-incubated for 4 hours).
Regarding `CCn1cc(-c2cn3ncc(-c4cc(C(=O)NC)cc(C(F)F)c4F)c3nc2N[C@H]2CCOC2)cn1` [Example 48, (S)-3-(Difluoromethyl)-5-(6-(1-ethyl-1H-pyrazol-4-yl)-5-((tetrahydrofuran-3-yl)amino)pyrazolo[1,5-a]pyrimidin-3-yl)-4-fluoro-N-methylbenzamide], the IC50 in assay [1] was below 10 nM; at FGFR1, 10 to 30 nM; at FGFR2 (pre-incubated for 4 hours) it was below 10 nM.
As for `CNC(=O)c1cc(C)c(F)c(-c2cnn3cc(-c4cnn(CC(=O)N(C)C)c4)c(N[C@H]4CCOC4)nc23)c1` [Example 39, (S)-3-(6-(1-(2-(Dimethylamino)-2-oxoethyl)-1H-pyrazol-4-y1)-5-((tetrahydrofuran-3-yl)amino)pyrazolo[1,5-a]pyrimidin-3-y1)-4-fluoro-N,5-dimethylbenzamide], the IC50 is below 10 nM in assay [1], 10 to 30 nM against FGFR1 and below 10 nM at FGFR2.
Regarding `CNC(=O)c1cncc(-c2cnn3cc(-c4cnn(C(C)C)c4)c(N[C@H]4CCOC4)nc23)c1` [Example 10, (S)-5-(6-(1-Isopropyl-1H-pyrazol-4-yl)-5-((tetrahydrofuran-3-yl)amino)pyrazolo[1,5-a]pyrimidin-3-yl)-N-methylnicotinamide], the IC50 in assay [1] was below 10 nM; against FGFR1, 30 to 200 nM.
In the case of `CNC(=O)c1cc(C#N)cc(-c2cnn3cc(-c4ccc(C)nc4)c(O[C@H]4CCOC4)nc23)c1` [Example 28, (S)-3-Cyano-N-methyl-5-(6-(6-methylpyridin-3-yl)-5-((tetrahydrofuran-3-yl)oxy)pyrazolo[1,5-a]pyrimidin-3-yl)benzamide], the IC50 is below 10 nM in assay [1], at least 200 nM at FGFR1 and 10 to 30 nM against FGFR2 (pre-incubated for 4 hours).
Regarding `CNC(=O)c1cncc(-c2cnn3cc(-c4ccc(N5CCN(C)CC5)nc4)c(O[C@H]4CCOC4)nc23)c1` [Example 19, (S)-N-Methyl-5-(6-(6-(4-methylpiperazin-1-yl)pyridin-3-yl)-5-((tetrahydrofuran-3-yl)oxy)pyrazolo[1,5-a]pyrimidin-3-yl)nicotinamide], the IC50 was below 10 nM in assay [1], 30 to 200 nM against FGFR1 and below 10 nM at FGFR2 (pre-incubated for 4 hours).
As for `CNC(=O)c1cc(-c2cnn3cc(-c4cnn(C5CN(C)C5)c4)c(O[C@H]4CCOC4)nc23)c(F)c(C(F)F)c1` [Example 26, (S)-3-(Difluoromethyl)-4-fluoro-N-methyl-5-(6-(1-(1-methylazetidin-3-yl)-1H-pyrazol-4-yl)-5-((tetrahydrofuran-3-yl)oxy)pyrazolo[1,5-a]pyrimidin-3-yl)benzamide], the IC50 (in assay [1]; at FGFR1; on FGFR2 (pre-incubated for 4 hours)) was below 10 nM each time.
With `CNC(=O)c1cc(F)c(F)c(-c2cnn3cc(-c4cnn(CCN5CCOCC5)c4)c(O[C@H]4CCOC4)nc23)c1` [Example 14, (S)-3,4-Difluoro-N-methy1-5-(6-(1-(2-morpholinoethyl)-1H-pyrazol-4-y1)-5-((tetrahydrofuran-3-yl)oxy)pyrazolo[1,5-a]pyrimidin-3-yl)benzamide], the IC50 (in assay [1]; at FGFR1; against FGFR2) was below 10 nM each time.
As to `CNC(=O)c1cc(C)c(F)c(-c2cnn3cc(-c4cnn(CCO)c4)c(N[C@H]4CCOC4)nc23)c1` [Example 36, (S)-4-Fluoro-3-(6-(1-(2-hydroxyethyl)-1H-pyrazol-4-yl)-5-((tetrahydrofuran-3-yl)amino)pyrazolo[1,5-a]pyrimidin-3-yl)-N,5-dimethylbenzamide], the IC50 was below 10 nM in assay [1], 30 to 200 nM against FGFR1 and below 10 nM at FGFR2 (pre-incubated for 4 hours).
On to `CNC(=O)c1cncc(-c2cnn3cc(-c4cnn(C)c4)c(N[C@H]4CCOC4)nc23)c1` [Example 7, (S)—N-Methyl-5-(6-(1-methyl-1H-pyrazol-4-yl)-5-((tetrahydrofuran-3-yl)amino)pyrazolo[1,5-a]pyrimidin-3-yl)nicotinamide], for which the IC50 is below 10 nM in assay [1] and 30 to 200 nM at FGFR1.
As to `CNC(=O)c1cc(C)c(F)c(-c2cnn3cc(-c4cnn(C5CCS(=O)(=O)C5)c4)c(N[C@H]4CCOC4)nc23)c1` (stereo partly drawn) [Example 38, 3-(6-(1-(1,1-Dioxidotetrahydrothiophen-3-y1)-1H-pyrazol-4-y1)-5-(((S)-tetrahydrofuran-3-yl)amino)pyrazolo[1,5-a]pyrimidin-3-y1)-4-fluoro-N,5-dimethylbenzamide], the IC50 is below 10 nM in assay [1], 30 to 200 nM against FGFR1 and below 10 nM at FGFR2.
As to `CNC(=O)c1cc(F)c(F)c(-c2cnn3cc(-c4cnn(C5CN(C)C5)c4)c(O[C@H]4CCOC4)nc23)c1` [Example 17, (S)-3,4-Difluoro-N-methyl-5-(6-(1-(1-methylazetidin-3-yl)-1H-pyrazol-4-yl)-5-((tetrahydrofuran-3-yl)oxy)pyrazolo[1,5-a]pyrimidin-3-yl)benzamide], the IC50 (in assay [1]; on FGFR1; against FGFR2 (pre-incubated for 4 hours)) was below 10 nM each time.
For the compound `CNC(=O)c1cc(F)c(F)c(-c2cnn3cc(-c4ccc(N5CCN(C)CC5)cc4)c(O[C@H]4CCOC4)nc23)c1` [Example 12, (S)-3,4-Difluoro-N-methy1-5-(6-(4-(4-methylpiperazin-1-yl)pheny1)-5-((tetrahydrofuran-3-yl)oxy)pyrazolo[1,5-a]pyrimidin-3-yl)benzamide], the IC50 (in assay [1]; at FGFR1; on FGFR2) was below 10 nM each time.
Take `CNC(=O)c1cc(C)c(F)c(-c2cnn3cc(-c4cnc(N5CCN(C)CC5)o4)c(N[C@H]4CCOC4)nc23)c1` [Example 70, (S)-4-Fluoro-N,3-dimethyl-5-(6-(2-(4-methylpiperazin-1-yl)oxazol-5-yl)-5-((tetrahydrofuran-3-yl)amino)pyrazolo[1,5-a]pyrimidin-3-yl)benzamide]: the IC50 is below 10 nM in assay [1], 30 to 200 nM against FGFR1 and below 10 nM on FGFR2 (pre-incubated for 4 hours).
For `CNC(=O)c1cc(C#N)cc(-c2cnn3cc(-c4cncc(C)c4)c(O[C@H]4CCOC4)nc23)c1` [Example 29, (S)-3-Cyano-N-methyl-5-(6-(5-methylpyridin-3-yl)-5-((tetrahydrofuran-3-yl)oxy)pyrazolo[1,5-a]pyrimidin-3-yl)benzamide], the IC50 against FGFR1 was at least 200 nM; on FGFR2 (pre-incubated for 4 hours) it was 30 to 200 nM.
On to `CNC(=O)c1cc(-c2cnn3cc(-c4cccnc4)c(O[C@H]4CCOC4)nc23)c(F)c(C(F)F)c1` [Example 23, (S)-3-(Difluoromethyl)-4-fluoro-N-methyl-5-(6-(pyridin-3-yl)-5-((tetrahydrofuran-3-yl)oxy)pyrazolo[1,5-a]pyrimidin-3-yl)benzamide], for which the IC50 in assay [1] is below 10 nM; against FGFR1, 30 to 200 nM; against FGFR2 (pre-incubated for 4 hours) it was below 10 nM.
For the compound `CNC(=O)c1cc(C)c(F)c(-c2cnn3cc(-c4ccnnc4)c(N[C@H]4CCOC4)nc23)c1` [Example 44, (S)-4-Fluoro-N,3-dimethyl-5-(6-(pyridazin-4-yl)-5-((tetrahydrofuran-3-yl)amino)pyrazolo[1,5-a]pyrimidin-3-yl)benzamide], the results for the IC50 at FGFR1 and at FGFR2 (pre-incubated for 4 hours) were at least 200 nM and 10 to 30 nM, respectively.
Regarding `CNC(=O)c1cc(-c2cnn3cc(-c4ccc(C(C)(C)O)nc4)c(O[C@H]4CCOC4)nc23)c(F)c(C(F)F)c1` [Example 25, (S)-3-(Difluoromethyl)-4-fluoro-5-(6-(6-(2-hydroxypropan-2-yl)pyridin-3-yl)-5-((tetrahydrofuran-3-yl)oxy)pyrazolo[1,5-a]pyrimidin-3-yl)-N-methylbenzamide], the values for the IC50 (in assay [1]; on FGFR1; against FGFR2 (pre-incubated for 4 hours)) were below 10 nM, 30 to 200 nM and below 10 nM, respectively.
With `CNC(=O)c1cc(C#N)cc(-c2cnn3cc(-c4cnn(C)c4)c(N[C@H]4CCOC4)nc23)c1` [Example 8, (S)-3-Cyano-N-methyl-5-(6-(1-methyl-1H-pyrazol-4-yl)-5-((tetrahydrofuran-3-yl)amino)pyrazolo[1,5-a]pyrimidin-3-yl)benzamide], the values for the IC50 (in assay [1]; on FGFR1) were below 10 nM and 30 to 200 nM, respectively.
On to `CNC(=O)c1cc(-c2cnn3cc(-c4cnn(C5CCOC5)c4)c(N[C@H]4CCOC4)nc23)c(F)c(C(F)F)c1` (stereo partly drawn) [Example 49, 3-(Difluoromethyl)-4-fluoro-N-methyl-5-(6-(1-(tetrahydrofuran-3-yl)-1H-pyrazol-4-yl)-5-(((S)-tetrahydrofuran-3-yl)amino)pyrazolo[1,5-a]pyrimidin-3-y1)benzamide], for which the IC50 in assay [1] is below 10 nM; against FGFR1, 10 to 30 nM; on FGFR2 it was below 10 nM.
For the compound `CNC(=O)c1cncc(-c2cnn3cc(-c4ccc(N5CCOCC5)nc4)c(O[C@H]4CCOC4)nc23)c1` [Example 20, (S)-N-Methyl-5-(6-(6-morpholinopyridin-3-yl)-5-((tetrahydrofuran-3-yl)oxy)pyrazolo[1,5-a]pyrimidin-3-yl)nicotinamide], the values for the concentration for half-maximal inhibition (IC50) (in assay [1]; on FGFR1; against FGFR2 (pre-incubated for 4 hours)) were below 10 nM, 30 to 200 nM and below 10 nM, respectively.
As to `CNC(=O)c1cc(-c2cnn3cc(-c4cnc(NC)c(C)c4)c(O[C@H]4CCOC4)nc23)c(F)c(C(F)F)c1` [Example 24, (S)-3-(Difluoromethyl)-4-fluoro-N-methyl-5-(6-(5-methyl-6-(methylamino)pyridin-3-yl)-5-((tetrahydrofuran-3-yl)oxy)pyrazolo[1,5-a]pyrimidin-3-yl)benzamide], the 50% inhibitory concentration (IC50) was at least 200 nM against FGFR1 and 10 to 30 nM against FGFR2 (pre-incubated for 4 hours).
The corresponding values for `CNC(=O)c1cc(C#N)cc(-c2cnn3cc(-c4cccnc4)c(O[C@H]4CCOC4)nc23)c1` [Example 27, (S)-3-Cyano-N-methyl-5-(6-(pyridin-3-yl)-5-((tetrahydrofuran-3-yl)oxy)pyrazolo[1,5-a]pyrimidin-3-yl)benzamide] are at least 200 nM and 10 to 30 nM.

Source of the values: patent US11566028B2, “Bicyclic heterocycles as FGFR inhibitors” (Incyte Corporation, priority 2019, dated 2023).
